These molecules were tested against T1, Nav 1.7 (Homo sapiens, UniProt Q15858) (assay: Whole-cell voltage clamp electrophysiology, automated patch clamp (marker c in Table of Examples)). Conditions: marker c = Automated patch clamp data; read-out: Nav 1.7 activity.
T1 construct: expressed in transfected cells
Type: cell-based
Outline: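 Human NaV1.7 currents were recorded by whole-cell automated patch clamp, on IonWorks Quattro or another automated platform, typically in perforated-patch configuration. The stimulus protocol was designed to probe block mainly of the inactivated state, with a typical sweep stepping from about −65 mV holding to −10 mV, then −100 mV.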

T1 sequence (Q15858 whole entry): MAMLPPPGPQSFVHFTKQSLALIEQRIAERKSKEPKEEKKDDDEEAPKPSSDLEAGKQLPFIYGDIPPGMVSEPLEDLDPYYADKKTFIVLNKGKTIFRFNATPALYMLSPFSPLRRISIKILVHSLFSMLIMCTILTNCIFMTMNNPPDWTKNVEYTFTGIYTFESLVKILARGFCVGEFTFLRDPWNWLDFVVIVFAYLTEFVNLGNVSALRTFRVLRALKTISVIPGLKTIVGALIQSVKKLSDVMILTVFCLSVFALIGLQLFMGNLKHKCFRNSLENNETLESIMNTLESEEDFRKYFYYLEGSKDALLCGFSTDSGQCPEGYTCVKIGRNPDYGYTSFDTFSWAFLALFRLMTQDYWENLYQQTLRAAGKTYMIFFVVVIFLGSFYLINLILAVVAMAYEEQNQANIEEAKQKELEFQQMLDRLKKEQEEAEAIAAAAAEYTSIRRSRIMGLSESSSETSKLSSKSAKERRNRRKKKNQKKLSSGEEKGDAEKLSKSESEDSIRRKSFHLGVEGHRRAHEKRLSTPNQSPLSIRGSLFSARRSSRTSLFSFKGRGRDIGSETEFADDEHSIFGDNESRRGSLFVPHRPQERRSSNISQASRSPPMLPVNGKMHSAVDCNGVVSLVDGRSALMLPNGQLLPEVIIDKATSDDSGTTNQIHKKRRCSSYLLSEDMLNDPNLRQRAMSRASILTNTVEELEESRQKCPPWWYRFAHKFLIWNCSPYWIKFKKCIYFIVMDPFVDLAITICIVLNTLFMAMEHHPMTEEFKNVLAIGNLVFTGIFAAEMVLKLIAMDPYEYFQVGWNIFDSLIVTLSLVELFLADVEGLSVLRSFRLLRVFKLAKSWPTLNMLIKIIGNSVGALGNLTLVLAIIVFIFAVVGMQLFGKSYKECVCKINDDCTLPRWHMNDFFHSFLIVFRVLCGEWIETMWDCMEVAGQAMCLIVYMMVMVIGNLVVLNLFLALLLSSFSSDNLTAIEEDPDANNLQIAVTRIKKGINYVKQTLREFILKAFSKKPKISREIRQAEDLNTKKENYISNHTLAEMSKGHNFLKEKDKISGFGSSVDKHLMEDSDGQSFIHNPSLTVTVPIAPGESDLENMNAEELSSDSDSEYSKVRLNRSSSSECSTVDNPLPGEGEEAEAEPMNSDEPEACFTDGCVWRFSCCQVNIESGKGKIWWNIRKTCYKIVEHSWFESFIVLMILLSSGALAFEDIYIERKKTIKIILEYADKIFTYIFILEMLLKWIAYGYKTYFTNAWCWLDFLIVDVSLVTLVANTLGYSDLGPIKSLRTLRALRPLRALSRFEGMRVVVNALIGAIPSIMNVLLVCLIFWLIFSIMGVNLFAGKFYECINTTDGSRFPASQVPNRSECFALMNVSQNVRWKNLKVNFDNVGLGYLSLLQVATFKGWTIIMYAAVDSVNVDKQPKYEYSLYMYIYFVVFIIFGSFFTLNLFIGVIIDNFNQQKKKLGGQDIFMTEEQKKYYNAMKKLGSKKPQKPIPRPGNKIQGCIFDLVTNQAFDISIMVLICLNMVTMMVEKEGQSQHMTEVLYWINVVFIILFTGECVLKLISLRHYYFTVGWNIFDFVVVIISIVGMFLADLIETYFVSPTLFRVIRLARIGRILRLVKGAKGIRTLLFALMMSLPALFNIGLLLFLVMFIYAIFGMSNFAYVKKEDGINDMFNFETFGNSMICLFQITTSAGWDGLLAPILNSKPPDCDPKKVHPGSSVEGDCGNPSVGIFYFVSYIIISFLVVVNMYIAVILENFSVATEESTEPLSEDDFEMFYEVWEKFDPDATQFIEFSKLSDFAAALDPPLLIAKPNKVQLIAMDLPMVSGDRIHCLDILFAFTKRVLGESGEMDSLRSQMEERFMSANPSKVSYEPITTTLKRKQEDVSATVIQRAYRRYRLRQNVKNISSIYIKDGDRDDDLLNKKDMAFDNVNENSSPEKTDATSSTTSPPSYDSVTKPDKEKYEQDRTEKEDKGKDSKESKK

Compound	IC50 [nM]
Cc1ncccc1-c1nc(-c2nc(N)nc(N(C)c3ccccc3)n2)no1 [Example 268, 2-N-methyl-6-[5-(2-methylpyridin-3-yl)-1,2,4-oxadiazol-3-yl]-2-N-phenyl-1,3,5-triazine-2,4-diamine]	1360
CN(c1ccccc1)c1nc(N)nc(-c2noc(-c3ccc(S(=O)(=O)CCC(F)(F)F)nc3)n2)n1 [Example 454, 2-N-methyl-2-N-phenyl-6-(5-{6-[(3,3,3-trifluoropropane)sulfonyl]pyridin-3-yl}-1,2,4-oxadiazol-3-yl)-1,3,5-triazine-2,4-diamine]	290
CN(c1ccccc1)c1nc(N)nc(-c2noc(-c3ccc(OC4CCOCC4)nc3)n2)n1 [Example 361, 2-N-methyl-6-{5-[6-(oxan-4-yloxy)pyridin-3-yl]-1,2,4-oxadiazol-3-yl}-2-N-phenyl-1,3,5-triazine-2,4-diamine]	273
CN(c1nc(N)nc(-c2noc(-c3ccc(OCC(F)(F)F)nc3)n2)n1)c1ccccc1F [Example 408, 2-N-(2-fluorophenyl)-2-N-methyl-6-{5-[6-(2,2,2-trifluoroethoxy)pyridin-3-yl]-1,2,4-oxadiazol-3-yl}-1,3,5-triazine-2,4-diamine]	139
CN(c1ccccc1)c1nc(N)nc(-c2noc(-c3cccnc3C(=O)NCC3CC3)n2)n1 [Example 370, 3-(3-{4-amino-6-[methyl(phenyl)amino]-1,3,5-triazin-2-yl}-1,2,4-oxadiazol-5-yl)-N-(cyclopropylmethyl)pyridine-2-carboxamide]	3510
CN(c1ccccc1)c1nc(N)nc(-c2noc(-c3ccc(C(=O)NC4CC4)nc3)n2)n1 [Example 287, 5-(3-{4-amino-6-[methyl(phenyl)amino]-1,3,5-triazin-2-yl}-1,2,4-oxadiazol-5-yl)-N-cyclopropylpyridine-2-carboxamide]	1890
CN(c1ccccc1)c1nc(N)nc(-c2noc(N3CC(OCC4CC4)C3)n2)n1 [Example 498, 6-{5-[3-(cyclopropylmethoxy)azetidin-1-yl]-1,2,4-oxadiazol-3-yl}-2-N-methyl-2-N-phenyl-1,3,5-triazine-2,4-diamine]	902
CC(Oc1ccc(-c2nc(-c3nc(N)nc(N(C)c4ccccc4)n3)no2)cn1)C(F)(F)F (stereo not drawn) [Example 357, 2-N-methyl-2-N-phenyl-6-(5-{6-[(1,1,1-trifluoropropan-2-yl)oxy]pyridin-3-yl}-1,2,4-oxadiazol-3-yl)-1,3,5-triazine-2,4-diamine]	55
CN(c1ccccc1)c1nc(N)nc(-c2noc(-c3ccc(CO)nc3)n2)n1 [Example 295, [5-(3-{4-Amino-6-[methyl(phenyl)amino]-1,3,5-triazin-2-yl}-1,2,4-oxadiazol-5-yl)pyridin-2-yl]methanol]	5190
CN(c1ccccc1)c1nc(N)nc(-c2noc(-c3cccnc3C(=O)NC3CC3)n2)n1 [Example 373, 3-(3-{4-amino-6-[methyl(phenyl)amino]-1,3,5-triazin-2-yl}-1,2,4-oxadiazol-5-yl)-N-cyclopropylpyridine-2-carboxamide]	4880

Results, then the molecule that gave them:

IC50 [nM]	Compound
406	CN(c1ccccc1)c1nc(N)nc(-c2noc(-c3ncccc3COCC(F)(F)F)n2)n1 [Example 302, 2-N-methyl-2-N-phenyl-6-(5-{3-[(2,2,2-trifluoroethoxy)methyl]pyridin-2-yl}-1,2,4-oxadiazol-3-yl)-1,3,5-triazine-2,4-diamine]
776	Nc1nc(Nc2cccc(F)c2)nc(-c2noc(C(=O)NC3Cc4ccccc4C3)n2)n1 [Example 225, 3-{4-amino-6-[(3-fluorophenyl)amino]-1,3,5-triazin-2-yl}-N-(2,3-dihydro-1H-inden-2-yl)-1,2,4-oxadiazole-5-carboxamide]
33	CC(OCc1ccc(-c2nc(-c3nc(N)nc(Nc4ccccc4)n3)no2)cn1)C(F)(F)F (stereo not drawn) [Example 210, 2-N-phenyl-6-[5-(6-{[(1,1,1-trifluoropropan-2-yl)oxy]methyl}pyridin-3-yl)-1,2,4-oxadiazol-3-yl]-1,3,5-triazine-2,4-diamine]
1230	CC(C)CS(=O)(=O)N1CCC(c2nc(-c3nc(N)nc(N(C)c4ccccc4)n3)no2)CC1 [Example 507, 2-N-methyl-6-(5-{1-[(2-methylpropane)sulfonyl]piperidin-4-yl}-1,2,4-oxadiazol-3-yl)-2-N-phenyl-1,3,5-triazine-2,4-diamine]
539	CN(c1ccccc1)c1nc(N)nc(-c2noc(N3CC4C(COc5ccccc5)C4C3)n2)n1 (stereo not drawn) [Example 391, 2-N-methyl-6-{5-[6-(phenoxymethyl)-3-azabicyclo[3.1.0]hexan-3-yl]-1,2,4-oxadiazol-3-yl}-2-N-phenyl-1,3,5-triazine-2,4-diamine]
2510	Nc1nc(Nc2ccccc2)nc(-c2noc(C(=O)NC3CCCC3)n2)n1 [Example 218, 3-[4-amino-6-(phenylamino)-1,3,5-triazin-2-yl]-N-cyclopentyl-1,2,4-oxadiazole-5-carboxamide]
1350	CN(c1ccccc1)c1nc(N)nc(-c2noc(-c3ccc(CN4CCCC4)nc3)n2)n1 [Example 293, 2-N-Methyl-2-N-phenyl-6-{5-[6-(pyrrolidin-1-ylmethyl)pyridin-3-yl]-1,2,4-oxadiazol-3-yl}-1,3,5-triazine-2,4-diamine]
422	CN(c1ccccc1)c1nc(N)nc(-c2noc(C(=O)NCc3ccc(OCC(F)(F)F)nc3)n2)n1 [Example 259, 3-{4-amino-6-[methyl(phenyl)amino]-1,3,5-triazin-2-yl}-N-{[6-(2,2,2-trifluoroethoxy)pyridin-3-yl]methyl}-1,2,4-oxadiazole-5-carboxamide]
57	CN(c1ccccc1)c1nc(N)nc(-c2noc(-c3ccc([S+]([O-])CCC(F)(F)F)nc3)n2)n1 (stereo not drawn) [Example 455, 2-N-methyl-2-N-phenyl-6-(5-{6-[(3,3,3-trifluoropropane)sulfinyl]pyridin-3-yl}-1,2,4-oxadiazol-3-yl)-1,3,5-triazine-2,4-diamine]
2810	CN(c1ccccc1)c1nc(N)nc(-c2noc(N3CCN(S(=O)(=O)N(C)C)CC3)n2)n1 [Example 388, 4-(3-{4-amino-6-[methyl(phenyl)amino]-1,3,5-triazin-2-yl}-1,2,4-oxadiazol-5-yl)-N,N-dimethylpiperazine-1-sulfonamide]
691	CC(C)OC[C@@H]1[C@H]2CN(c3nc(-c4nc(N)nc(Nc5ccccc5)n4)no3)C[C@@H]12 [Example 398, 2-N-phenyl-6-{5-[(1R,5S,6S)-6-[(propan-2-yloxy)methyl]-3-azabicyclo[3.1.0]hexan-3-yl]-1,2,4-oxadiazol-3-yl}-1,3,5-triazine-2,4-diamine]
2400	COCCOc1cccnc1-c1nc(-c2nc(N)nc(N(C)c3ccccc3)n2)no1 [Example 483, 6-{5-[3-(2-methoxyethoxy)pyridin-2-yl]-1,2,4-oxadiazol-3-yl}-2-N-methyl-2-N-phenyl-1,3,5-triazine-2,4-diamine]
161	CN(c1ccccc1)c1nc(N)nc(-c2noc(N3CC[C@H](Oc4ccccc4)C3)n2)n1 [Example 433, 2-N-methyl-6-{5-[(3S)-3-phenoxypyrrolidin-1-yl]-1,2,4-oxadiazol-3-yl}-2-N-phenyl-1,3,5-triazine-2,4-diamine]
40	COc1ccccc1-c1nc(-c2nc(N)nc(Nc3ccccc3)n2)no1 [Example 247, 6-[5-(2-methoxyphenyl)-1,2,4-oxadiazol-3-yl]-2-N-phenyl-1,3,5-triazine-2,4-diamine]

Same assay, conditions: marker c: Automated patch clamp data; read-out: Nav 1.7 activity

Compound	IC50 [nM]
Cc1cccc(N(C)c2nc(N)nc(-c3noc(-c4ccccc4OC(F)(F)F)n3)n2)c1 [Example 194, 2-N-methyl-2-N-(3-methylphenyl)-6-{5-[2-(trifluoromethoxy)phenyl]-1,2,4-oxadiazol-3-yl}-1,3,5-triazine-2,4-diamine]	843
CN(c1ccccc1)c1nc(N)nc(-c2noc(-c3ccccc3C#N)n2)n1 [Example 80, 2-{3-[4-Amino-6-(methyl-phenyl-amino)-[1,3,5]triazin-2-yl]-[1,2,4]oxadiazol-5-yl}-benzonitrile]	260
COc1ccc(-c2nc(-c3nc(N)nc(N(C)c4ccccc4)n3)no2)cn1 [Example 47, 6-[5-(6-Methoxy-pyridin-3-yl)-[1,2,4]oxadiazol-3-yl]-N-methyl-N-phenyl-[1,3,5]triazine-2,4-diamine]	1920
CC(C)N(c1ccccc1)c1nc(N)nc(-c2noc(-c3ccco3)n2)n1 [Example 30, 6-(5-Furan-2-yl-[1,2,4]oxadiazol-3-yl)-N-isopropyl-N-phenyl-[1,3,5]triazine-2,4-diamine]	933

Results, then the molecule that gave them:

IC50 [nM]	Compound
369	Nc1nc(Nc2cc(F)ccc2F)nc(-c2noc(-c3ccco3)n2)n1 [Example 109, N-(2,5-Difluoro-phenyl)-6-(5-furan-2-yl-[1,2,4]oxadiazol-3-yl)-[1,3,5]triazine-2,4-diamine]
363	CN(c1ccccc1)c1nc(N)nc(-c2noc(Cc3ccccc3)n2)n1 [Example 31, 6-(5-Benzyl-[1,2,4]oxadiazol-3-yl)-N-methyl-N-phenyl-[1,3,5]triazine-2,4-diamine]
5820	CN(c1ccccc1)c1nc(N)nc(-c2noc(-c3ccc(C(F)(F)F)nc3Cl)n2)n1 [Example 142, 6-{5-[2-chloro-6-(trifluoromethyl)pyridin-3-yl]-1,2,4-oxadiazol-3-yl}-2-N-methyl-2-N-phenyl-1,3,5-triazine-2,4-diamine]
1380	Cc1ccc(-c2nc(-c3nc(N)nc(N(C)c4ccccc4)n3)no2)cc1 [Example 29, N-Methyl-N-phenyl-6-(5-p-tolyl-[1,2,4]oxadiazol-3-yl)-[1,3,5]triazine-2,4-diamine]
287	CS(=O)(=O)c1cccc(Nc2nc(N)nc(-c3noc(-c4ccc(OCC(F)(F)F)nc4)n3)n2)c1 [Example 189, 2-N-(3-methanesulfonylphenyl)-6-{5-[6-(2,2,2-trifluoroethoxy)pyridin-3-yl]-1,2,4-oxadiazol-3-yl}-1,3,5-triazine-2,4-diamine]

Reference: patent US8895733B2 (Novartis AG, priority 2010, dated 2014)
